Reference: patent publication US20120301866A1, “LIQUID FORMULATION HAVING DISSOLVED GASES USEFUL FOR PRESERVING BIOLOGICAL MATERIAL” (L'Air Liquide, Société Anonyme pour I'Etude et …, priority 2010, published 2012)
Entries after “also recorded” stand apart in the source; their conditions may differ.

Columns and labels:
Type in all cases: in vivo
[1] = tested on: rat kidneys; assay: Rat kidney transplantation after cold storage in gas-saturated Celsior solution: renal function (creatinine clearance, urinary albumin); conditions: for overall effect on the preservation of a renal graft: compared with the other experimental groups; for level of albumin in the urine (urinary albumin): kidney stored 6 h at 4 °C, atmospheric pressure, in gas-saturated Celsior, days 7 and 14 after transplantation
Experimental: In accordance with the present invention, argon gas was dissolved in a liquid organ preservation solution available on the market, i.e. the CELSIOR solution, the composition of which is given in table 1, in order to obtain a liquid formulation in accordance with the present invention.
For the purposes of comparison, other gases, i.e. xenon, air and nitrogen, were dissolved in the same type of liquid solution.
(§1) In order to evaluate the renal graft preservation properties of argon or other gases, rat kidneys were removed and stored in a gas-saturated liquid solution according to the present invention.
(§2) After six hours of organ preservation at a temperature of 4° C. and at atmospheric pressure, the rat kidneys are transplanted and the survival time, renal function and reperfusion/ischemia injuries are studied by means of biochemical and histological analyses.
On days 0 (pretransplantation), 7 and 14 (after transplantation), biochemical analyses, i.e. creatinine clearance and urinary albumin, are carried out in the manner described by M. Yin et al., in “Carolina rinse solution minimizes kidney injury and improves graft function and survival after prolonged cold ischemia.” Transplantation 2002; 73:1410-1420).
Creatinine clearance is a parameter that is used to evaluate renal function. A high clearance corresponds to good renal function, while the presence of albumin in the urine (urinary albumin) indicates renal damage since, normally, there is no albumin in the urine when the kidney is normal.

[2] = tested on: rat kidneys; assay: Histology of transplanted rat kidneys (hematoxylin-eosin-safran, optical microscopy); conditions: day 14 after transplantation; kidney stored 6 h at 4 °C in gas-saturated solution
Experimental: as §1, §2
On day 14 after transplantation, the kidneys are removed, weighed and cut into blocks. The kidneys are then fixed with a buffered 4% formaldehyde infusion for 24 h and they are embedded in paraffin. Five-micrometer sections are obtained from the blocks and stained with hematoxylin-eosin-safran in order to examine them by optical microscopy.

[3] = tested on: rat kidneys; assay: Immunohistochemistry of transplanted rat kidneys (anti-active caspase-3, anti-CD10); conditions: day 14 after transplantation; for active caspase-3 expression (immunohistochemistry): marker for apoptosis
Experimental: In order to evaluate the renal graft preservation properties of argon or other gases, rat kidneys were removed and stored in a gas-saturated liquid solution according to the present invention. After six hours of organ preservation at a temperature of 4° C. and at atmospheric pressure, the rat kidneys are transplanted and the survival time, renal function and reperfusion/ischemia injuries are studied by means of biochemical and histological analyses. Immunodetections were carried out on serial cryostat sections 5 μm thick, using certain specific antibodies, i.e. anti-active caspase-3 and anti-CD10. The kidneys of a normal rat are used as control. After having been rinsed, the sections are incubated for 30 minutes with biotinylated secondary antibodies and they are then visualized using avidin-biotin peroxidase.

Compound	overall effect on the preservation of a renal graft [1]	level of albumin in the urine (urinary albumin) [1]	histological observations of transverse kidney sections [2]	active caspase-3 expression (immunohistochemistry) [3]	CD10 expression (immunohistochemistry) ([3]; weak CD10 expression corresponds to a damaged kidney)
[Ar] [argon]	very positive and advantageous effects	much lower than the levels of albumin (urinary albumin) obtained with the other transplanted kidneys	the architectural integrity of the kidney is preserved without any obvious glomerular modification; also recorded: intact normal morphology as in the control group, with no modification nor any necrosis	discrete and focal losses	discrete and focal losses of CD 10 expression
N#N [nitrogen, reference compound]	–	–	–	significant expression of active caspase-3	–
[Xe] [xenon, reference compound]	some good effects	an effect greater than that which was obtained with the controls, but which is less than that obtained with argon	–	the active caspase-3 expression has been lost because of the serious acute tubular necrosis	–
